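Five compound concentrations were applied to cells in 96-well plates for 48 hours; endpoints were derived by simple linear interpolation of the resulting dose-response curve. TGI marks complete inhibition of growth.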
Tests used:
Test in all cases: NCI anticancer screen, dose series, 48 h
[1] = test system: 786-0 renal
[2] = test system: A498 renal
[3] = test system: A549 NSCLC
[4] = test system: ACHN renal
[5] = test system: BT-549 breast
[6] = test system: CAKI-1 renal
[7] = test system: CCRF-CEM leukemia
[8] = test system: COLO 205 colon
[9] = test system: DU-145 prostate
[10] = test system: EKVX NSCLC
[11] = test system: HCC-2998 colon
[12] = test system: HCT-116 colon
[13] = test system: HCT-15 colon
[14] = test system: HL-60(TB) leukemia
[15] = test system: HOP-62 NSCLC
[16] = test system: HOP-92 NSCLC
[17] = test system: HS 578T breast
[18] = test system: HT29 colon
[19] = test system: IGROV1 ovarian
[20] = test system: KM12 colon
[21] = test system: LOX IMVI melanoma
[22] = test system: M14 melanoma
[23] = test system: MALME-3M melanoma
[24] = test system: MCF7 breast
[25] = test system: MDA-MB-231 breast
[26] = test system: MDA-MB-435
[27] = test system: MDA-N
[28] = test system: MOLT-4 leukemia
[29] = test system: NCI-H226 lung
[30] = test system: NCI-H23 lung
[31] = test system: NCI-H460 lung
[32] = test system: NCI-H522 lung
[33] = test system: NCI/ADR-RES ovarian
[34] = test system: OVCAR-3 ovarian
[35] = test system: OVCAR-4 ovarian
[36] = test system: OVCAR-5 ovarian
[37] = test system: OVCAR-8 ovarian
[38] = test system: PC-3 prostate
[39] = test system: RPMI-8226 leukemia
[40] = test system: RXF 393 renal
[41] = test system: SF-268 CNS
[42] = test system: SF-295 CNS
[43] = test system: SF-539 CNS
[44] = test system: SK-MEL-2 melanoma
[45] = test system: SK-MEL-28 melanoma
[46] = test system: SK-MEL-5 melanoma
[47] = test system: SK-OV-3 ovarian
[48] = test system: SN12C renal
[49] = test system: SNB-19 CNS
[50] = test system: SNB-75 CNS
[51] = test system: SR leukemia
[52] = test system: SW-620 colon
[53] = test system: T-47D breast
[54] = test system: TK-10 renal
[55] = test system: U251 CNS
[56] = test system: UACC-62 melanoma
[57] = test system: UO-31 renal
[58] = test system: K-562 leukemia
[59] = test system: UACC-257 melanoma

Structure (SMILES): Cc1cccc(N=Nc2c(C)nn(C(=O)CC(=O)Nc3ccccc3)c2C)c1
- TGI [1]: > 100 µM
- TGI [2]: > 100 µM
- TGI [3]: > 100 µM
- TGI [4]: > 100 µM
- TGI [5]: > 100 µM
- TGI [6]: > 100 µM
- TGI [7]: > 100 µM
- TGI [8]: > 100 µM
- TGI [9]: > 100 µM
- TGI [10]: > 100 µM
- TGI [11]: > 100 µM
- TGI [12]: > 100 µM
- TGI [13]: > 100 µM
- TGI [14]: > 100 µM
- TGI [15]: > 100 µM
- TGI [16]: > 100 µM
- TGI [17]: > 100 µM
- TGI [18]: > 100 µM
- TGI [19]: > 100 µM
- TGI [20]: > 100 µM
- TGI [21]: > 100 µM
- TGI [22]: > 100 µM
- TGI [23]: > 100 µM
- TGI [24]: > 100 µM
- TGI [25]: > 100 µM
- TGI [26]: > 100 µM
- TGI [27]: > 100 µM
- TGI [28]: > 100 µM
- TGI [29]: > 100 µM
- TGI [30]: > 100 µM
- TGI [31]: > 100 µM
- TGI [32]: > 100 µM
- TGI [33]: > 100 µM
- TGI [34]: > 100 µM
- TGI [35]: > 100 µM
- TGI [36]: > 100 µM
- TGI [37]: > 100 µM
- TGI [38]: > 100 µM
- TGI [39]: > 100 µM
- TGI [40]: > 100 µM
- TGI [41]: > 100 µM
- TGI [42]: > 100 µM
- TGI [43]: > 100 µM
- TGI [44]: > 100 µM
- TGI [45]: > 100 µM
- TGI [46]: > 100 µM
- TGI [47]: > 100 µM
- TGI [48]: > 100 µM
- TGI [49]: > 100 µM
- TGI [50]: > 100 µM
- TGI [51]: > 100 µM
- TGI [52]: > 100 µM
- TGI [53]: > 100 µM
- TGI [54]: > 100 µM
- TGI [55]: > 100 µM
- TGI [56]: > 100 µM
- TGI [57]: > 100 µM

Structure (SMILES): CCCCCC(O)[C@H]1C(=O)C[C@@H](O[Si](C)(C)C(C)(C)C)[C@@H]1/C=C/CCOCc1ccccc1 (stereo partly specified)
- TGI [1]: 26.1 µM
- TGI [2]: 39.9 µM
- TGI [3]: > 60.3 µM
- TGI [4]: 26.2 µM
- TGI [5]: 21.3 µM
- TGI [6]: 29.9 µM
- TGI [7]: > 100 µM
- TGI [8]: 41.5 µM
- TGI [9]: 46.4 µM
- TGI [10]: 35.2 µM
- TGI [11]: 30.9 µM
- TGI [12]: > 45.5 µM
- TGI [13]: 27.4 µM
- TGI [14]: > 100 µM
- TGI [15]: 34.1 µM
- TGI [16]: 28.1 µM
- TGI [17]: 26.4 µM
- TGI [18]: 22.5 µM
- TGI [19]: 25.6 µM
- TGI [58]: > 59.4 µM
- TGI [20]: 17.2 µM
- TGI [21]: 43 µM
- TGI [22]: 34.5 µM
- TGI [23]: 28.8 µM
- TGI [24]: > 54.7 µM
- TGI [25]: 61.8 µM
- TGI [26]: 22.4 µM
- TGI [27]: > 63.9 µM
- TGI [28]: > 29.7 µM
- TGI [29]: 27.5 µM
- TGI [30]: 33.3 µM
- TGI [31]: 30.5 µM
- TGI [32]: 15 µM
- TGI [33]: 29.3 µM
- TGI [34]: 28.1 µM
- TGI [35]: 34.1 µM
- TGI [36]: 36.6 µM
- TGI [37]: 28.4 µM
- TGI [38]: 30.9 µM
- TGI [39]: > 44.8 µM
- TGI [40]: 31.3 µM
- TGI [41]: 33.2 µM
- TGI [42]: 20.3 µM
- TGI [43]: 29.5 µM
- TGI [44]: 31.2 µM
- TGI [45]: 31 µM
- TGI [46]: 37.9 µM
- TGI [47]: 31.1 µM
- TGI [48]: 38.4 µM
- TGI [49]: 28.5 µM
- TGI [50]: 32.1 µM
- TGI [51]: > 62.9 µM
- TGI [52]: 41.4 µM
- TGI [53]: 40.1 µM
- TGI [54]: 28.5 µM
- TGI [55]: 29.6 µM
- TGI [59]: 26.4 µM
- TGI [56]: 25.1 µM
- TGI [57]: 27.5 µM

From PubChem BioAssay (NCI)
